{"source": "patent US4889935A", "about": "“Aminoguanidine derivatives” (American Home Products Corporation, priority 1989, dated 1989)", "key": {"[1]": {"test_system": "carrageenan paw edema (acute inflammatory response) in Sprague-Dawley rats", "assay": "rat carrageenan paw edema assay", "type": "in vivo, rat (Sprague-Dawley)", "conditions": "for % Inhibition (peroral) of paw edema: 1 hour before carrageenan, 3 hours", "protocol": "The compounds of the invention are further tested in the rat carrageenan paw edema assay to determine their ability to inhibit the acute inflammatory response. This assay is carried out as follows: 140-180 gm mal Sprague-Dawley rats, in groups of 6 animals are injected subcutaneously in the right paw with 0.1 ml of 1% carrageenan at zero time. Mercury plethysmographic readings (ml) of the paw are made at zero time and 3 hours later. Test compounds are suspended or dissolved in 0.5% methycellulose and given perorally 1 hour prior to carrageenan administration. The increase in paw volume (edema in ml.) produced by the carrageenan is measured. […] Unpaired Student's t-test is used to determine statistical significance."}, "[2]": {"test_system": "LTB4 synthesis by rat polymorphonuclear leukocytes (lipoxygenase)", "assay": "inhibition of LTB4 synthesis by rat glycogen-elicited polymorphonuclear leukocytes (PMN)", "type": "cell-based, rat (female Wistar)", "protocol": "This is especially true with respect to 5,12-diHETE, which is also denoted as LTB4 [See Ford-Hitchinson, J. Roy. Soc. Med., 74, 831 (1981)]. The assay of this Example measures the ability of the compounds of the invention to inhibit the synthesis of LTB4 by rat glycogenelicited polymorphonuclear leukocytes (PMN).\nThe assay is carried out as follows:\nRat polymorphonuclear leukocytes (PMNs) are obtained from female Wistar rats (150-200 g) which receive an injection of 6% glycogen (10 ml i.p.). Rats are sacrificed 18-24 hours post injection by CO2 asphyxiation and the elicited cells are harvested by peritoneal lavage using physiological saline (0.9% NaCl). The exudate is centrifuged at 400 x g for 10 minutes. The supernatant fluid is discarded and the cell pellet is resuspended to a concentration of 2.0×10^7 cells/ml in HBSS containing Ca^++ and Mg^++ and 10 μM L-cysteine.\nTo 1 ml aliquots of cell suspension, test drugs or vehicle are added, then preincubated at 37° C. for 10 minutes. […] Supernatants are then analyzed by HPLC analysis on a 15 cm×4.6 mm ID Supelcosil LC-18 (Supelco)(3M) column, using a two solvent system at a flow rate of 1.4 ml total flow as follows: […]\nInjections: 150 μl of each supernatant is injected directly onto column and ^3 H arachidonic acid metabolites are monitored using an on-line radioactivity detector (Ramona, IN/US, Fairfield, NJ). […]"}, "[3]": {"test_system": "adjuvant-induced polyarthritis in Sprague-Dawley rats", "assay": "adjuvant arthritis assay", "type": "in vivo, rat (Sprague-Dawley)", "conditions": "oral dose 30 mg/kg"}}, "data": [{"smiles": "COc1ccc2c(c1)c(CC(=O)O)c(C)n2C(=O)c1ccc(Cl)cc1", "note": "[Indomethacin, reference compound]", "values": [{"measurement": "ED50", "setting": "[1]; Rattus norvegicus, po, 3 h, read-out: Oral ED50 (95% C.L.) mg/kg", "value": 3.7, "unit": "mg/kg"}]}, {"smiles": "CC(=NNC(=N)N)c1cccc(OCc2ccc3ccccc3n2)c1", "note": "[Example 2, 2-[1-[3-(2-Quinolinylmethoxy)phenyl]ethylidene]hydrazinecarboximidamide]", "values": [{"measurement": ">50% Inhibitory at 50 μm (LTB4 synthesis)", "setting": "[2]", "value": "+ (those compounds having an inhibition of >50%)"}, {"measurement": "% Inhibition (peroral) of paw edema", "setting": "[1]; at 100 mg/kg peroral", "value": 43, "unit": "%"}]}, {"smiles": "CC(=NNC(=N)N)c1cccc(OCc2ccc3ccccc3c2)c1", "note": "[Example 1, 2-[1-[3-(2-Naphthalenylmethoxy)phenyl]ethylidene]-hydrazinecarboximidamide,0.1 hydrate]", "values": [{"measurement": "% Inhibition (peroral) of paw edema", "setting": "[1]; at 50 mg/kg peroral", "value": 42, "unit": "%"}, {"measurement": "% Change of Right Paw Edema at Day 4", "setting": "[3]; day 4", "value": 50, "unit": "%"}, {"measurement": "% Change of Left Paw Edema at Day 16", "setting": "[3]; day 16", "value": 31, "unit": "%"}]}]}
